Measured values reported in patent EP0812835B1, “OPTICALLY ACTIVE THIAZOLIDINONE DERIVATIVES” (SANKYO COMPANY LIMITED, priority 1995, dated 1996).
Marks after values point to notes of the source that are not given here.

Experiments:
aspirin-induced ulcer = experiment: Inhibition of aspirin-induced ulcer; format: in vivo, Donryu strain male rats; details: for Inhibition rate (%): 1 hour before aspirin, area of ulceration vs control group
Method: Inhibition of aspirin-induced ulcer
As a test animal, 10 Donryu strain male rats each weighing 200 g-250 g were used in one group. The rats were fasted before the experiment for 24 hours but they could freely drink water. The test compounds were suspended in 0.5% carboxymethyl cellulose (CMC) solution. Meanwhile, for a control group, 0.5% CMC solution was used.
The test compound was orally administered (0.1 ml/100 g body weight) to the rats and an aspirin solution (150 mg/ml: suspended in 0.5% CMC solution) was orally administered (0.1 ml/100 g body weight) to the rats 1 hour later. Four hours after the administration of the aspirin solution, the rats were sacrificed using carbon dioxide gas and the stomach of each rat was taken out. Into the stomachs were poured 10 ml of 1% formalin solution to allow the stomachs to expand, and the stomachs were immersed in 1% formalin solution in a beaker for about 15-20 minutes. Then, each stomach was cut along the greater curvature thereof and an area of the ulceration in the gastric mucosa was measured by means of an image analysis apparatus [Luzex-F: manufactured by Nireko Co., Ltd.]. The average value of the area of the ulceration of each group was calculated from the area of the ulceration of each rat and the inhibition rate was obtained by comparing the average value of the test group with that of the control group.

Collateral Vessel [1] = experiment: Collateral vessel dilating action by administration into the portal vein (first-pass effect test); format: in vivo, Beagle dogs (male); details: administered into the portal vein, compared with intravenous administration, 60 minutes
Method: Collateral Vessel Dilating Action by Administration into the Portal Vein
While test specimens were prepared according to the method of Test example 1, the animal was laparotomized along the abdominal median line, and a branch of the mesenteric vein was removed and incised so as to administer the test drug into the portal vein. A polyethylene cannula (Atom intravenous catheter 2F) was inserted antegrade into this vein to reside in the portal vein, and then the test drug was administered through it. In order to test the first-pass effect of the test drug, it was first administered intravenously (inguinal vein) to determine collateral vessel dilating action of the drug for 60 minutes. The same test drug was then administered into the portal vein 2 or 3 hours later to determine collateral vessel dilating action for 60 minutes, and those actions were compared with each other.

Collateral Vessel [2] = experiment: Collateral vessel dilating action by intravenous administration (Collateral Index, carotid artery occlusion); format: in vivo, Beagle dogs (male); details: dose of 0.3 mg/kg, intravenous (inguinal vein), anesthetized dogs
Method: Collateral Vessel Dilating Action by Intravenous Administration
Beagle dogs (male) weighing 9 to 13 kg were anesthetized by intravenous injection of pentobarbital at a dose of 30 mg/kg and tested under artificial respiration. In order to measure the pressure of the left carotid artery, a polyethylene cannula (Atom intravenous catheter 2F) was inserted […] into one branch of the left thyroid artery. The left carotid artery upstream from this pressure measurement site was occluded for 1 minute with an arterial clamp, and the pressure immediately before occlusion (P) and the decrease in peripheral pressure (ΔP) were measured. Next, the test drug was administered through another polyethylene cannula inserted into the inguinal vein. The left carotid artery was occluded for 1 minute after 5, 15, 30, 45 and 60 minutes, and pressure immediately before occlusion (Pa) and the decrease in peripheral pressure (ΔPa) each time were measured. Collateral vessel dilating effect (Collateral Index = CI) of the test drug was determined according to the following formula: CI = 100 - (ΔPa/Pa) x 100/(ΔP/P) [formula]

[3] = Stability of compounds (storage, residual ratio by high pressure liquid chromatography); format: physicochemical; details: for storage stability: in words
Method: About 2 mg of the test compound was accurately weighed and placed in a brown bottle. The bottle was left to stand at a dark place at room temperature (24-26°C) for 4 weeks and a residual ratio (%) of the test compound was measured by high pressure liquid chromatography (column: Inertsil ODS-3, eluting solvent: 10 mM (pH=7.0) phosphoric acid buffer/acetonitrile=80/20).

SMILES: C[C@@H](CO[N+](=O)[O-])NC(=O)[C@@H]1CSC(=O)N1 [Example 1, (4R)-N-[(1S)-1-Methyl-2-nitroxyethyl]-2-oxothiazolidin-4-vl-carboxamide]
- Inhibition rate (%) (aspirin-induced ulcer; 30 mg/kg orally, p<0.05): 63.58*^) %
- Inhibition rate (%) (aspirin-induced ulcer; 100 mg/kg orally, p<0.005): 80.15**^) %
- Inhibition rate (%) (aspirin-induced ulcer; 300 mg/kg orally, p<0.005): 93.17**^) %
- anti-ulcerative action (aspirin-induced ulcer; result in words, summary of Table 4): excellent anti-ulcerative action
- collateral vessel dilating action (Collateral Vessel [1]): excellent collateral vessel dilating action
- CI(60) (Collateral Vessel [2]): > 10
- Residual ratio (%) ([3]; dark place at room temperature (24-26°C) for 4 weeks, brown bottle): 101.2%
- storage stability ([3]; as compared with the 1:1 mixture of Example 1 and the (4R),(1R)-isomer): excellent storage stability
- storage stability ([3]; as compared with the (4R),(1R)-isomer): excellent storage stability

SMILES: CCC[C@@H](CO[N+](=O)[O-])NC(=O)[C@@H]1CSC(=O)N1 [Example 5, (4R)-N-[(1S)-1-Propyl-2-nitroxyethyl]-2-oxothiazolidin-4-yl-carboxamide]
- CI(60) (Collateral Vessel [2]): > 10

SMILES: CCCC[C@@H](CO[N+](=O)[O-])NC(=O)[C@@H]1CSC(=O)N1 [Example 6, (4R)-N-[(1S)-1-Butyl-2-nitroxyethyl]-2-oxothiazolidin-4-yl-carboxamide]
- CI(60) (Collateral Vessel [2]): > 10

SMILES: CC(C)C[C@@H](CO[N+](=O)[O-])NC(=O)[C@@H]1CSC(=O)N1 [Example 8, (4R)-N-[(1S)-1-Isobutyl-2-nitroxyethyl]-2-oxothiazolidin-4-yl-carboxamide]
- CI(60) (Collateral Vessel [2]): > 10
